Test results taken from ChEMBL document CHEMBL6109139, “Rational Design of the First Dual Agonist at Trace Amine-Associated Receptor 1 and 5-HT2C Receptors Based on Binding Pocket Similarity for the Treatment of Schizophrenia and Alzheimer's Disease-Related Psychosis” (J Med Chem, 2025).

Columns and labels:
[1] = biological target: 5-hydroxytryptamine receptor 3A (Homo sapiens) (UniProt P46098); assay: Binding affinity to 5-HT3 (unknown origin) at 10 uM by radioligand binding assay relative to control
Chain of 5-hydroxytryptamine receptor 3A (Homo sapiens) (P46098 whole entry): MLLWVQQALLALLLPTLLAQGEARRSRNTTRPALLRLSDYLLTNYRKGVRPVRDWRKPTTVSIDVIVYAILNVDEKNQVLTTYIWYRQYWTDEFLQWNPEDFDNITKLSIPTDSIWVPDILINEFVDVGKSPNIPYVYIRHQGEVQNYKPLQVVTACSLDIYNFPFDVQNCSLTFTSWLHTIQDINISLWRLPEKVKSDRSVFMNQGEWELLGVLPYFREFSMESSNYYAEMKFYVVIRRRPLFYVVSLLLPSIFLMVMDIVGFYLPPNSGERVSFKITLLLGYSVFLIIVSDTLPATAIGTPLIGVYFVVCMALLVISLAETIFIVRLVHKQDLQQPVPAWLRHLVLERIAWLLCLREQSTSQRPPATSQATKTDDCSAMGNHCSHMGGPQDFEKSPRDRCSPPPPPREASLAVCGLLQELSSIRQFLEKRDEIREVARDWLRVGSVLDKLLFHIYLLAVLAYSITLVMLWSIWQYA

[2] = Toxicity in female Sprague-Dawley rat assessed as irritability at 2.5 mg/kg, po administered once daily for 4 weeks and measured after 4 weeks; format: organism-based; settings: in vivo, 1344 h, time 8 weeks
[3] = Toxicity in male Sprague-Dawley rat assessed as irritability at 2.5 mg/kg, po administered once daily for 4 weeks; format: organism-based; settings: in vivo, 672 h
[4] = organism: Homo sapiens; assay: Binding affinity to CCKa (unknown origin) at 10 uM by radioligand binding assay relative to control
[5] = Drug concentration in male Sprague-Dawley rat brain at 5 mg/kg, IG measured after 6 hrs by LC-MS/MS analysis; format: ADME, organism-based; settings: in vivo, po
[6] = Toxicity in female Sprague-Dawley rat assessed as change in bone marrow smears at 2.5 to 7.5 mg/kg, po administered once daily for 4 weeks and measured after 4 weeks; format: organism-based; settings: in vivo, 1344 h, dose 2.5-7.5 mg/kg, time 8 weeks
[7] = biological target: Sodium-dependent serotonin transporter (Homo sapiens) (UniProt P31645); assay: Binding affinity to 5-HTT (unknown origin) at 10 uM by radioligand binding assay relative to control
Chain of Sodium-dependent serotonin transporter (Homo sapiens) (P31645 whole entry, looked up): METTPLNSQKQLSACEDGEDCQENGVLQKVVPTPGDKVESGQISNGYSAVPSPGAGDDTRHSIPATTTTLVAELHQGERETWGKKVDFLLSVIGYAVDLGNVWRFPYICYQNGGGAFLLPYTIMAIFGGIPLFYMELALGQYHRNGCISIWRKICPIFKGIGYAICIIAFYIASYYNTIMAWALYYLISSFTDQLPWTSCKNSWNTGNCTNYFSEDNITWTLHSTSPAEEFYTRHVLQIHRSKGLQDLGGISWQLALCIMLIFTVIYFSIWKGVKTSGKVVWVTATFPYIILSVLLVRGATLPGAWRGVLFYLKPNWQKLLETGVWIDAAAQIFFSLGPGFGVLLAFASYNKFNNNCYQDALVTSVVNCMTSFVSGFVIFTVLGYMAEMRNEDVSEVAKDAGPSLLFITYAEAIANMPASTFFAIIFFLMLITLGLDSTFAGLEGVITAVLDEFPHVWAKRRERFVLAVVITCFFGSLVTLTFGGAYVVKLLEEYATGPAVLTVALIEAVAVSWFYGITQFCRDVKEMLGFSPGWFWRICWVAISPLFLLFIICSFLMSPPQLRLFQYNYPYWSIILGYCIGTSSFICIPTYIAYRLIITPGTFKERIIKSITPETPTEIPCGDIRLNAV

[8] = Cardiotoxicity in conscious cynomolgus monkey assessed as arrhythmia at 3.125 to 12.5 mg/kg, IG measured within 24 hrs; format: toxicity, organism-based, Macaca fascicularis; settings: in vivo, po, dose 3.125-12.5 mg/kg
[9] = Cardiotoxicity in conscious cynomolgus monkey assessed as normal spontaneous movement at 3.125 to 12.5 mg/kg, IG; format: toxicity, organism-based, Macaca fascicularis; settings: in vivo, po, dose 3.125-12.5 mg/kg
[10] = Toxicity in Sprague-Dawley rat assessed as normal spontaneous movement at 2.5 to 7.5 mg/kg, po administered once daily for 4 weeks and measured after 4 weeks; format: organism-based; settings: in vivo, 1344 h, dose 2.5-7.5 mg/kg, time 8 weeks
[11] = tested on: Mus musculus; assay: Antipsychotic activity against MK-801 induced hypermobilization in male C57BL/6J mouse model assessed as reduction in hypermobilization state at 10 mg/kg, IG pretreated with compound followed by MK-801 addition and measured after 30 mins by open field test; format: functional, organism-based
[12] = Toxicity in female Beagle dog assessed as change in body weight at 0.75 to 2.5 mg/kg, IG administered once daily for 4 weeks and measured after 4 weeks; format: organism-based, Canis lupus familiaris; settings: in vivo, po, 1344 h, dose 0.75-2.5 mg/kg, time 8 weeks
[13] = Toxicity in female Sprague-Dawley rat assessed as change in clinical chemistry at 2.5 to 7.5 mg/kg, po administered once daily for 4 weeks and measured after 4 weeks; format: organism-based; settings: in vivo, 1344 h, dose 2.5-7.5 mg/kg, time 8 weeks
[14] = Mutagenicity in Salmonella typhimurium TA98 by Ames test; format: toxicity; settings: salmonella enterica subsp. enterica serovar typhimurium
[15] = Cardiotoxicity in conscious cynomolgus monkey assessed as change in mean arterial pressure at 3.125 to 12.5 mg/kg, IG measured within 25 hrs; format: toxicity, organism-based, Macaca fascicularis; settings: in vivo, po, dose 3.125-12.5 mg/kg
[16] = biological target: 5-hydroxytryptamine receptor 2A (Homo sapiens) (UniProt P28223); assay: Binding affinity to 5-HT2A (unknown origin) at 10 uM by radioligand binding assay relative to control
Chain of 5-hydroxytryptamine receptor 2A (Homo sapiens) (P28223 whole entry): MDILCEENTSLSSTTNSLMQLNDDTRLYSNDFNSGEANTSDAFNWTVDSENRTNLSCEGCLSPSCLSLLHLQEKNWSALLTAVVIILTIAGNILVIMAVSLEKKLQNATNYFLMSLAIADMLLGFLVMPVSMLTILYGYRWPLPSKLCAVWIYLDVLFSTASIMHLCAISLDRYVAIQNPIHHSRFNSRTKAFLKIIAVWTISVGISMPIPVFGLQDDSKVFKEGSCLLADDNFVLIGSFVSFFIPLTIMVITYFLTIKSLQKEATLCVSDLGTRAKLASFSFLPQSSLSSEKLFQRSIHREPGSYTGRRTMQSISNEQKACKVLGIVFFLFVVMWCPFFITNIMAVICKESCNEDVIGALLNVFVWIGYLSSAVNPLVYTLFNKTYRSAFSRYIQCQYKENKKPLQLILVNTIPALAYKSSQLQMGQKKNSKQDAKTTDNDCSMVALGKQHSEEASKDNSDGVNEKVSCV

[17] = Plasma protein binding in dog assessed as unbound fraction by LC-MS/MS analysis; format: ADME, cell-free, Canis lupus familiaris
[18] = biological target: Prostaglandin G/H synthase 1 (Homo sapiens) (UniProt P23219); assay: Binding affinity to COX1 (unknown origin) at 10 uM by radioligand binding assay relative to control
Chain of Prostaglandin G/H synthase 1 (Homo sapiens) (P23219 whole entry): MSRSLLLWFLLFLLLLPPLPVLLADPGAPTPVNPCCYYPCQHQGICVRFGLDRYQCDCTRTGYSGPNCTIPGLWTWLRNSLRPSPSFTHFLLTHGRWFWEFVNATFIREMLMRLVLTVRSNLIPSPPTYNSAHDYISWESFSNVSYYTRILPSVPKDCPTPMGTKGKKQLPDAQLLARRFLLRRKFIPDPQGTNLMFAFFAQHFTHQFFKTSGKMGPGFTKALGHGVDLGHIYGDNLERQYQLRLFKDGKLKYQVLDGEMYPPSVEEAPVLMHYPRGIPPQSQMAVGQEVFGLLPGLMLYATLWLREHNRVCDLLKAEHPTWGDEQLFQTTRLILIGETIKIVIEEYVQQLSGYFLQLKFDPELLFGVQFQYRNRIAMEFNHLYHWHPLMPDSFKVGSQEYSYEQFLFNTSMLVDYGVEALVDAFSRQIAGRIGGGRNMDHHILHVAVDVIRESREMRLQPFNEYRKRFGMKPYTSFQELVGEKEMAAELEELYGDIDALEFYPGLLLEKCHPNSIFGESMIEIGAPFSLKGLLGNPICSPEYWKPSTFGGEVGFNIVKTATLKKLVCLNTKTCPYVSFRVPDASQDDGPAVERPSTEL

[19] = Metabolic stability in mouse liver microsomes assessed as intrinsic clearance at 1 uM incubated for 60 mins by LC-MS/MS analysis; format: ADME, Microsome; settings: read-out: CLH
[20] = Toxicity in male Beagle dog assessed as change in prolactin at 0.75 to 2.5 mg/kg, IG administered once daily for 4 weeks and measured after 4 weeks; format: organism-based, Canis lupus familiaris; settings: in vivo, po, 1344 h, dose 0.75-2.5 mg/kg, time 8 weeks
[21] = biological target: Sodium-dependent noradrenaline transporter (Homo sapiens) (UniProt P23975); assay: Binding affinity to NET receptor (unknown origin) at 10 uM by radioligand binding assay relative to control
Chain of Sodium-dependent noradrenaline transporter (Homo sapiens) (P23975 whole entry): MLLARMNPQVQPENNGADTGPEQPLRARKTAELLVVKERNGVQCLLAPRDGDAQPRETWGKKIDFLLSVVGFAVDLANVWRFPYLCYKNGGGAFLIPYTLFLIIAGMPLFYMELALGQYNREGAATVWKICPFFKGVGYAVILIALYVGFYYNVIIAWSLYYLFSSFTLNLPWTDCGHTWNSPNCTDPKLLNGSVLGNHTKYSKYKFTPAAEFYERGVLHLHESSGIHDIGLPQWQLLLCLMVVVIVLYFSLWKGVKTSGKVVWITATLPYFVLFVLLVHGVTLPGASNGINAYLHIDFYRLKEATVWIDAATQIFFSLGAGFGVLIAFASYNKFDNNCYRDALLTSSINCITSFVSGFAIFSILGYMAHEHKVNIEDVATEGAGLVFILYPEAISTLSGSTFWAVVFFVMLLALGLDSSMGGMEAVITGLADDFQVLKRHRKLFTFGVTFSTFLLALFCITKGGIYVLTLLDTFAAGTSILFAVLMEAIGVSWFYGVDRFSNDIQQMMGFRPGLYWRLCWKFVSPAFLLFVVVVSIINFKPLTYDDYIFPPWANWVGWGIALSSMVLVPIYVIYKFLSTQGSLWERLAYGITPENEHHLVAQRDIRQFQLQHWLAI

[22] = biological target: Kappa-type opioid receptor (Homo sapiens) (UniProt P41145); assay: Binding affinity to op-kappa receptor (unknown origin) at 10 uM by radioligand binding assay relative to control
Chain of Kappa-type opioid receptor (Homo sapiens) (P41145 whole entry): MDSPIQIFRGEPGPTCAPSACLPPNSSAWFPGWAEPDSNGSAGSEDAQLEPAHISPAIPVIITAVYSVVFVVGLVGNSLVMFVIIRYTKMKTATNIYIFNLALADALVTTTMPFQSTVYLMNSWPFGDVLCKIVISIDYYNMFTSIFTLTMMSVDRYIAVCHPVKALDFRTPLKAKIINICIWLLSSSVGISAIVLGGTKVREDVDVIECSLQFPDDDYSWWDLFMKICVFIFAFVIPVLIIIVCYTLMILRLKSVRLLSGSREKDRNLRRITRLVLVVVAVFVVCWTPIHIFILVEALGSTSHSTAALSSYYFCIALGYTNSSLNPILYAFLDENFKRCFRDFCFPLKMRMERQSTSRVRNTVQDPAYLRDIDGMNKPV

[23] = Toxicity in Sprague-Dawley rat assessed as animal death 2.5 to 7.5 mg/kg, po administered once daily for 4 weeks; format: organism-based; settings: in vivo, 672 h, dose 2.5-7.5 mg/kg
[24] = tested on: Mus musculus; assay: Antipsychotic activity against MK-801 induced hyperlocomotion in male C57BL/6J mouse model assessed as reduction in hyperlocomotive state at 5 mg/kg, IG pretreated with compound followed by MK-801 addition and measured after 30 mins by open field test; format: functional, organism-based
[25] = Toxicity in male Sprague-Dawley rat assessed as change in bone marrow smears at 2.5 to 7.5 mg/kg, po administered once daily for 4 weeks and measured after 4 weeks; format: organism-based; settings: in vivo, 1344 h, dose 2.5-7.5 mg/kg, time 8 weeks
[26] = Toxicity in male Sprague-Dawley rat assessed as piloerection at 7.5 mg/kg, po administered once daily for 4 weeks and measured after 4 weeks; format: organism-based; settings: in vivo, 1344 h, time 8 weeks
[27] = Toxicity in male Beagle dog assessed as change in bone marrow smears at 0.75 to 2.5 mg/kg, IG administered once daily for 4 weeks and measured after 4 weeks; format: organism-based, Canis lupus familiaris; settings: in vivo, po, 1344 h, dose 0.75-2.5 mg/kg, time 8 weeks
[28] = biological target: 5-hydroxytryptamine receptor 2C (Rattus norvegicus, UniProt P08909); assay: Agonist activity at rat 5-HT2CR; format: functional
Chain of 5-hydroxytryptamine receptor 2C (P08909 whole entry): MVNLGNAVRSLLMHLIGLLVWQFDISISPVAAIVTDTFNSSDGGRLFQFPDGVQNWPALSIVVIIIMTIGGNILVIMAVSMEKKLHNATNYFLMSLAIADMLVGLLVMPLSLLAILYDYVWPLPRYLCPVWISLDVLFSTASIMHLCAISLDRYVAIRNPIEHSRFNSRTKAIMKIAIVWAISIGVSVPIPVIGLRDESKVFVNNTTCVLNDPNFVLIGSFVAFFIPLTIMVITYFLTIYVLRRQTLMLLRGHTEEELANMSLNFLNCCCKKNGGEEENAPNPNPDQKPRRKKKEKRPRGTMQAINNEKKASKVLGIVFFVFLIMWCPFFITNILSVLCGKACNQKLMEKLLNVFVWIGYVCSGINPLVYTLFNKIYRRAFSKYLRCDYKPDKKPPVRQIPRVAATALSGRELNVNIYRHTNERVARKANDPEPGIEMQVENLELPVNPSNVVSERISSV

[29] = organism: Mus musculus; assay: Antipsychotic activity against MK-801 induced hyperlocomotion in male C57BL/6J mouse model assessed as effective dose; format: functional
[30] = biological target: MAO-A (Homo sapiens, UniProt P21397); assay: Binding affinity to MAO-A (unknown origin) at 10 uM by radioligand binding assay relative to control; settings: read-out: Activity
Chain of MAO-A (P21397 whole entry): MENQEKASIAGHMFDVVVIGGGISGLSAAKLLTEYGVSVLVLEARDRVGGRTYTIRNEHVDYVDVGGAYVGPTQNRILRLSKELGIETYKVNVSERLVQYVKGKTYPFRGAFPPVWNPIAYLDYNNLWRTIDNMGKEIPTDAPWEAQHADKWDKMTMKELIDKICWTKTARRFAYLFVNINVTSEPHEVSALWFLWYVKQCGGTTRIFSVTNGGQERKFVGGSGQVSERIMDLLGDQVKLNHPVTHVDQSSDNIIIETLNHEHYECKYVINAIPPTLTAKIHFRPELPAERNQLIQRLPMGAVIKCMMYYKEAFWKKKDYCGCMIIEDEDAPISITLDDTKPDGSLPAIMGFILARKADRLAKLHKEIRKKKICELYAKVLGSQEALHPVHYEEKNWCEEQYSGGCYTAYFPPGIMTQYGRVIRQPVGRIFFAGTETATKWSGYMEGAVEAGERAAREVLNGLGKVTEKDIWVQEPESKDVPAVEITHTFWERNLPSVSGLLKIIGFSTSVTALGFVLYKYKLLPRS

[31] = Toxicity in Sprague-Dawley rat assessed as dyskinesia 2.5 to 7.5 mg/kg, po administered once daily for 4 weeks; format: organism-based; settings: in vivo, 672 h, dose 2.5-7.5 mg/kg
[32] = Cardiotoxicity in conscious cynomolgus monkey assessed as change in systolic pressure at 3.125 to 12.5 mg/kg, IG measured within 25 hrs; format: toxicity, organism-based, Macaca fascicularis; settings: in vivo, po, dose 3.125-12.5 mg/kg
[33] = biological target: T1, 5-hydroxytryptamine receptor 2C (Homo sapiens) (UniProt P28335); assay: Agonist activity at recombinant human 5-HT2CR expressed in HEK293 cells incubated for 2 hrs by measuring maximum efficacy by FLIPR calcium assay relative to control; format: functional, cell-based; settings: filed as agonist
T1 sequence (whole entry): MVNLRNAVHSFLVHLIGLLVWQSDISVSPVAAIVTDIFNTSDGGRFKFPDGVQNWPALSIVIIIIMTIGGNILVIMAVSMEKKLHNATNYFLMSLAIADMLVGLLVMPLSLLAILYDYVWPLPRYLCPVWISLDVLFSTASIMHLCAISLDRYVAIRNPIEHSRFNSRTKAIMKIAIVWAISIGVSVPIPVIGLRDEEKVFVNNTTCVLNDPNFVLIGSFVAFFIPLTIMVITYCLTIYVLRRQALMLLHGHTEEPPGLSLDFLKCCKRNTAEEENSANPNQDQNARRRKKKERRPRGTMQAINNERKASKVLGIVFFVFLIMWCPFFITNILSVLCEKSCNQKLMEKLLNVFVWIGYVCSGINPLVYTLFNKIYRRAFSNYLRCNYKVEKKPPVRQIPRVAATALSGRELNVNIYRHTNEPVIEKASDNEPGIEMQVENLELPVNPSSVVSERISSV

With `c1cc2c(s1)[C@@H]1CNCCN1CC2` the Activity [1] was 13%, the Activity [2] was “Non-toxic” and the Activity [3] was “Toxic”. The Activity [4] was 1.26%, the Ct [5] was 3832 nmol/kg and the Activity [6] was “Non-toxic”. For the same compound, the Activity [7] was 1.76%, the Activity [8] was “Non-toxic” and the Activity [9] was “Non-toxic”. The Activity [10] was “Non-toxic”, the Activity [11] was “Active; Similar Effect Observed Compared To Brexpiprazole” and the Activity [12] was “Non-toxic”. The Activity [13] was “Non-toxic”, the Activity [14] was “Non-toxic” and the Activity [15] was “Non-toxic”. The Activity [16] was 36.5%, the fraction unbound [17] was 0.761 and the Activity [18] was 33.3%. For the same compound, the CLint scaled at 1 µM [19] was < 29.7 mL/min/kg, the Activity [20] was “Non-toxic” and the Activity [21] was 8.57%. The Activity [22] was 4.07%, the Activity [23] was “Non-toxic” and the Activity [24] was “Active; More Effective Than Aripiprazole”. The Activity [25] was “Non-toxic”, the Activity [26] was “Non-toxic” and the Activity [27] was “Non-toxic”. The EC50 [28] was 70.2 nM, the ED50 [29] was 2.81 mg/kg and the activity at 10 µM [30] was 5.33%. For the same compound, the Activity [31] was “Non-toxic”, the Activity [32] was “Non-toxic” and the Emax [33] was 100%.
